Laboratory results: patent US20040152735A1, “NO-synthase inhibitors comprising N,N'-bis(2-pyridyl)methyl-N,N'-bis(3,4,5-trimethoxybenzyl) ethylenediamine” (SOCIETE L'OREAL, S.A., priority 2001, published 2004)

Molecular target: T1, inducible NO-synthase (NO-synthase 2) (Homo sapiens, UniProt P35228)
T1 construct: positive control (induction of the enzyme): mixtures of interferon-(1000 U/ml) and of interleukin 1-(100 U/ml); endogenous in cells; 267(30), 21277-21280, 1992
Test: Inhibition of inducible NO-synthase (test of Heck et al.): nitrite/nitrate measured after stimulating NO-synthase 2 with interferon and interleukin 1
Format: cell-based
Protocol: The activity of N,N′-bis(2-pyridyl)methyl-N,N′-bis(3,4,5-trimethoxybenzyl)ethylenediamine on inducible NO-synthase was evaluated in the test described by Heck et al., (J.B.C., Vol. 267, No. 30, 21277-21280, Oct. 25, 1992).
The object of this test is to show the reduction in the concentration of nitrate and nitrite, ultimately, after stimulating NO-synthase 2.
The following controls were introduced into the tests:
A: positive control (induction of the enzyme): mixtures of interferon-(1000 U/ml) and of interleukin 1-(100 U/ml);
To determine the activity of the test product, the amount of stable NO reaction products (nitrites and nitrates) is measured using the “nitric calorimetric assay” kit marketed by Boehringer under the reference 1756.28.
N,N′-bis(2-pyridyl)methyl-N,N′-bis(3,4,5-trimethoxybenzyl) ethylenediamine was tested at concentrations of 10 μM, 50 μM and 100 μM in ethanol.

T1 sequence (P35228 whole entry, species assumed): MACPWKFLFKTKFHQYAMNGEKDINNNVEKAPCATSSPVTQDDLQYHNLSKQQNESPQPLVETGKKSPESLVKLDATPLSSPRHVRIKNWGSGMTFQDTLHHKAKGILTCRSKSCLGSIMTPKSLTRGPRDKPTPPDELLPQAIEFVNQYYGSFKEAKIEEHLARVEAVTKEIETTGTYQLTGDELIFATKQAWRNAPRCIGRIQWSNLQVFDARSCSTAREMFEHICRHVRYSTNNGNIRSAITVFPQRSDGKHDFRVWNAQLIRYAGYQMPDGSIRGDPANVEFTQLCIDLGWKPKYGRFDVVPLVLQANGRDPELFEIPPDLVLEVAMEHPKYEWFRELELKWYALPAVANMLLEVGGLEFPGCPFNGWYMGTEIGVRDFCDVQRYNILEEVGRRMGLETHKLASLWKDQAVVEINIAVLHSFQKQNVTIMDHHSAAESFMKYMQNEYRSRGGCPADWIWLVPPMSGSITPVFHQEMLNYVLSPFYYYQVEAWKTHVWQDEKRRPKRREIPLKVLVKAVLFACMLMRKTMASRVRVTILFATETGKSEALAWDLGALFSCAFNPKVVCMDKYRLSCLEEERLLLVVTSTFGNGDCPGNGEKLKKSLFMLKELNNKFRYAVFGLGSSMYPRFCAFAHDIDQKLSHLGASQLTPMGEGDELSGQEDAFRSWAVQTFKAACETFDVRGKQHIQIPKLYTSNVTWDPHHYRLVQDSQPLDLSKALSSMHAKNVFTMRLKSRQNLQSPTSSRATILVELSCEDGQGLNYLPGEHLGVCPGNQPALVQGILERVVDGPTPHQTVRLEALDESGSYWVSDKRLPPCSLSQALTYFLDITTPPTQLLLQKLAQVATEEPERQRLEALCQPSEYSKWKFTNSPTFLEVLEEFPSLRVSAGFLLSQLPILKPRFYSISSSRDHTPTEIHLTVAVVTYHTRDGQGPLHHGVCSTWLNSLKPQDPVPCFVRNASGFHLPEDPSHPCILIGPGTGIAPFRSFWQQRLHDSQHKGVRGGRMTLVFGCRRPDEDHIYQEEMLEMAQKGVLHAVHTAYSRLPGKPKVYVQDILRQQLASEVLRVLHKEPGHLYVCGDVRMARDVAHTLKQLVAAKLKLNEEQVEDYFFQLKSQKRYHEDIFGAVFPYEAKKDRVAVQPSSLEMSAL

- inhibition at 10 µM (10 μM in ethanol, nitrites and nitrates after induction with interferon (1000 U/ml) and interleukin 1 (100 U/ml)): 18.8%
- inhibition at 50 µM (50 μM in ethanol, nitrites and nitrates after induction with interferon (1000 U/ml) and interleukin 1 (100 U/ml)): 48.3%
- inhibition at 100 µM (100 μM in ethanol, nitrites and nitrates after induction with interferon (1000 U/ml) and interleukin 1 (100 U/ml)): 62%
Structure (SMILES): COc1cc(CN(CCN(Cc2cc(OC)c(OC)c(OC)c2)Cc2ccccn2)Cc2ccccn2)cc(OC)c1OC [N,N′-bis(2-pyridyl)methyl-N,N′-bis(3,4,5-trimethoxybenzyl)ethylenediamine]
- effect on inducible NO-synthase (in words) (conclusion from the test at 10-100 μM): has an inhibitory effect on inducible NO-synthase
